# From patent US20240400521A1, “QUINAZOLINE COMPOUND, COMPOSITION, AND APPLICATION THEREOF” (BEIJING SCITECH-MQ PHARMACEUTICALS LIMITED, priority 2021, published 2024)
# System: HCC-827 cells
# Test: Inhibition of cell proliferation, CTG method, HCC-827
# Format: cell-based
# Conditions: Homo sapiens, HCC827, 72 hours
# Description: The present application examined the in vitro anti-proliferative activity of the compounds of the present disclosure against in vitro cultured HCC-827, Ba/F3-EGFR-VIII and Ba/F3 EGFR D770_N771insSVD cell lines by CTG method.
# Reagents and consumables: RPMI1640 (ThermoFisher, Cat. No. C11875500BT); DMEM (ThermoFisher, C11995500BT); fetal bovine serum (Hyclone, Cat. No. SV30087.03); 0.25% trypsin-EDTA (ThermoFisher, Cat. No. 25200072); penicillin-streptomycin (Hyclone, Cat. No. SV30010); DMSO (Life Science, Cat. No. 0231-500ML); CTG assay kit (Promega, Cat. No. G9243); 96-well plate (Corning, Cat. No. 3599); multifunctional plate reader (Perkin Elmer, Cat. No. Envision)
# Cell lines: HCC-827 (from ATCC), Ba/F3-EGFR-VIII and Ba/F3 EGFR D770_N771insSVD (all from KYinno Biotechnology (Beijing) Co., Ltd.); all of the above cells were cultured with RPMI1640 medium containing 10% fetal bovine serum, 100 U/mL penicillin, and 100 μg/mL streptomycin in the culture process, and HCC-827 was cultured with DMEM medium containing 10% fetal bovine serum, 100 U/mL penicillin, and 100 μg/mL streptomycin.
# • 1. The assay compound was dissolved with DMSO to form a stock solution and a gradient dilution was performed, followed by dilution with the corresponding medium to obtain a solution with 5-fold working concentration. • 2. Cells in logarithmic growth phase were adjusted to specific cell densities by dilution with culture medium, and 80 μL of cell suspension was added to a 96-well plate, such that plating densities of cells of HCC-827, Ba/F3-EGFR-VIII and Ba/F3 EGFR D770_N771insSVD were all 3000 cells/well. The cells of Ba/F3-EGFR-VIII and Ba/F3 EGFR D770_N771insSVD were used directly in the next step (treatment with compound), whereas the HCC-827 needed to be cultured overnight in a 37° C., 5% carbon dioxide gas incubator to adhere to the wall, and then treated with compounds. • 3. 20 μL of compound solution was added to each well of the 96-well plate that had been inoculated with cells. The highest concentration of the assayed compound was 10 μM, 4-fold serial dilution, a total of 9 concentrations, and duplicate wells. A control group without compound was also set up. • 4. The cells were cultured for another 72 hours, and then cell viability was detected by CTG assay kit. Signal values were read with a multifunctional plate reader (Perkin Elmer). GraphPad Prism software was used to create a dose-response curve and IC50 was calculated.
smiles,measurement,value
"COc1c(NC(=O)/C=C/CN(C)C)ccc2ncnc(Nc3cccc(Cl)c3F)c12 [Example 1, (E)-N-(4-((3-chloro-2-fluorophenyl)amino)-5-methoxyquinazolin-6-yl)-4-(dimethylamino)but-2-enamide]",IC50,≤ 5 nM
